Results published in ChEMBL document CHEMBL1201862, “PubChem BioAssay data set” (2004).
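Method: 48-hour compound exposure of cells in 96-well plates, five concentrations, linear interpolation of endpoints. GI50 marks 50% less growth.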 Calls of active or inactive are those of the source. Cut-off read from the data, not from the text of the source: active = GI50 up to about 1.1 µM and inactive = higher.

Key:
Experiment in all cases: DTP human tumour cell line panel, 48 h
BT-549 = test system: BT-549
HCC 2998 = test system: HCC 2998
HCT-116 = test system: HCT-116
HL-60 = test system: HL-60
K562 = test system: K562
MDA-N = test system: MDA-N
NCI-H23 = test system: NCI-H23
OVCAR-5 = test system: OVCAR-5
RXF 393 = test system: RXF 393
SF-268 = test system: SF-268
SK-MEL-28 = test system: SK-MEL-28
SK-MEL-2 = test system: SK-MEL-2
SK-OV-3 = test system: SK-OV-3
SNB-19 = test system: SNB-19
COLO 205 = test system: COLO 205
NCI/ADR-RES = test system: NCI/ADR-RES
OVCAR-4 = test system: OVCAR-4
OVCAR-8 = test system: OVCAR-8
SF-295 = test system: SF-295
SW-620 = test system: SW-620

Measured: GI50

COC(=O)C1=C(O)C(C(=O)OC)[C@@]2(O)[C@@H](C(=O)OC)[C@H](C)[C@@H](C)[C@@H]1[C@@H]2C(=O)OC (stereo partly specified)
inactive: BT-549 37.5 µM | HCC 2998 37.8 µM | HCT-116 66.1 µM | HL-60 45.7 µM | K562 35.6 µM | MDA-N 22 µM | NCI-H23 75.2 µM | OVCAR-5 > 100 µM | RXF 393 13.2 µM | SF-268 > 100 µM | SK-MEL-28 > 100 µM | SK-MEL-2 48.5 µM | SK-OV-3 49.4 µM | SNB-19 > 100 µM

C=CC[C@@]1(C(=O)OC)[C@H](Sc2ccccc2)C1(C)C
inactive: BT-549 46 µM | COLO 205 33.3 µM | HCC 2998 27 µM | HCT-116 23.6 µM | HL-60 16.2 µM | NCI-H23 23.2 µM | NCI/ADR-RES 44.9 µM | OVCAR-4 43.7 µM | OVCAR-5 80.9 µM | OVCAR-8 53.8 µM | SF-268 85.5 µM | SF-295 36.1 µM | SK-MEL-28 78.2 µM | SK-MEL-2 24.2 µM | SK-OV-3 > 100 µM | SNB-19 > 100 µM | SW-620 61.4 µM

COc1cc(O)c2c(=O)c(O)c(-c3ccc(O)c(OC)c3)oc2c1 [RHAMNAZIN]
inactive: BT-549 2 µM | COLO 205 33.7 µM | HCC 2998 7.6 µM | HCT-116 5.15 µM | HL-60 4.11 µM | K562 4.37 µM | MDA-N 4.8 µM | NCI-H23 > 26.5 µM | NCI/ADR-RES 5.05 µM | OVCAR-4 2.48 µM | OVCAR-5 > 100 µM | OVCAR-8 3.52 µM | SF-268 1.89 µM | SF-295 > 100 µM | SK-MEL-2 > 100 µM | SNB-19 3.83 µM | SW-620 18.5 µM

COC1(OC)C2C=CC1C([C@](C)(N)CO)C2 (stereo partly specified)
inactive: BT-549 > 100 µM | COLO 205 > 100 µM | HCC 2998 > 100 µM | HCT-116 > 100 µM | HL-60 > 100 µM | K562 > 100 µM | MDA-N > 100 µM | NCI-H23 > 100 µM | OVCAR-4 > 100 µM | OVCAR-5 > 100 µM | OVCAR-8 > 100 µM | RXF 393 > 100 µM | SF-268 > 100 µM | SF-295 > 100 µM | SK-MEL-28 > 100 µM | SK-OV-3 > 100 µM | SNB-19 > 100 µM | SW-620 > 100 µM

c1ccc2c(c1)NC(C1OC3CCCN3C1C1Nc3ccccc3S1)S2 (stereo unspecified)
inactive: BT-549 78.2 µM | COLO 205 83.6 µM | HCC 2998 > 100 µM | HCT-116 55.3 µM | HL-60 20.6 µM | K562 31 µM | NCI-H23 29 µM | OVCAR-4 63.4 µM | OVCAR-5 > 100 µM | OVCAR-8 52.1 µM | RXF 393 21.2 µM | SF-268 > 100 µM | SF-295 90.6 µM | SK-MEL-28 > 100 µM | SK-OV-3 > 100 µM | SNB-19 > 100 µM | SW-620 > 100 µM

O=C1c2ccccc2-c2nc(/C=C/c3ccccc3)cc3c2c1nc1ccccc13
inactive: BT-549 36.8 µM | COLO 205 20.5 µM | HCC 2998 20.4 µM | HCT-116 17.4 µM | K562 3.47 µM | NCI-H23 12.1 µM | NCI/ADR-RES 33.8 µM | OVCAR-4 68.7 µM | OVCAR-5 > 100 µM | OVCAR-8 24.3 µM | RXF 393 29.2 µM | SF-268 65 µM | SF-295 23 µM | SK-MEL-28 23.1 µM | SK-MEL-2 21.6 µM | SK-OV-3 34.1 µM | SNB-19 80.5 µM | SW-620 20 µM
